What was measured:
[1] = biological target: T1, MMP9 processing by HFL-1 cells (Homo sapiens, UniProt P14780); assay: Activation of proMMP9 by human fetal lung fibroblast (HFL-1) cultures (Western blot); type: cell-based; conditions: 3.3 μM, 30 nM elastase, final 72 hrs; mAb-L51/82
T1 construct: host or cells: HFL-1 human fetal lung fibroblasts, TNFα plus neutrophil elastase
Protocol: Compound-α was assessed additionally for ability to block the maturation of proMMP9 to active MMP9 in cultures of human fetal lung fibroblasts (HFL-1, American Type Culture Collection #CCL-153). Unlike rat synoviocytes, HFL-1 cells were unable to process proMMP9 to the active form without addition of neutrophil elastase. […] Rather, the function of elastase in this assay may be to inactivate tissue inhibitors of matrix metalloproteinases (TIMPs) that repress endogenous pathways of MMP9 activation (Am J Respir Crit. Care Med; 1999; 159:1138-46).
HLF-1 were maintained in monolayer culture in DMEM with 10% FCS and were used between passage numbers 5-15. HLF-1 were embedded in collagen gels as described for rat SCW synoviocytes (vida supra). Half mL gels containing 0.4 million cells were dislodged into wells of 12 well Costar plates containing 1 mL/well of DMEM adjusted to contain 0.05% BSA and 100 ng/mL human TNFα (R&D Systems Cat #210-TA/CF). After overnight culture (37° C. and 5% CO2) wells were adjusted to contain an additional 0.5 mL of DMEM containing 0.05% BSA and with or without 13.2 μM Compound-α (final concentration was 3.3 μM Compound-α). Next, cultures were adjusted to contain 30 nM human elastase (Innovative Research). The plates were cultured an additional 72 hrs, at which time MMP9 secreted into the conditioned media was bound to gelatin-sepharose and evaluated by Western blot analysis as described for the rat synoviocyte cultures (vida supra). mAb-51/82 detected three forms of MMP9 in HFL-1 cultures.
These included a form of approximately 100 kD with mobility similar to recombinant rat proMMP9, an approximately 80 kD form with mobility similar to rat active MMP9, and an approximately 86 kD intermediate form. In the absence of Compound-α, most of the MMP9 was present as the 80 kD form. In the presence of Compound-α, the 80 kD form was a minor fraction of the total signal while nearly half of the signal were contributed each by the 100 kD and 86 kD forms. […]
A second experiment was performed to determine if the 80 kD form was mature active MMP9 and to determine the potency of Compound-α as an inhibitor of MMP9 maturation in this assay. HFL-1 cells embedded in collagen gels were cultured as described above in the presence of TNFα overnight and the cultures were then adjusted to contain 30 nM elastase and graded concentrations of Compound-α for an additional 72 hrs at which time MMP9 secreted into the conditioned media was bound to gelatin-sepharose and evaluated by Western blot analysis for active MMP9 using pAb-1246 raised against the N-terminal neoepitope of active MMP9 (Table 5). In the absence of Compound-α, pAb-1246 readily detected MMP9 with an electrophoretic mobility of approximately 80 kD. […]

[2] = biological target: T2, MMP9 in ankles of SCW-induced rats (Rattus norvegicus, UniProt P50282); assay: Pro and active MMP9 in ankles of rats with SCW-induced arthritis by Western blot; type: in vivo; conditions: Day 26, four hours after AM dose, FIG. 3A lanes 4-9
T2 construct: from tissue; host or cells: tibia-tarsus joints (ankles) of female Lewis rats
T2 sequence (P50282 20-708): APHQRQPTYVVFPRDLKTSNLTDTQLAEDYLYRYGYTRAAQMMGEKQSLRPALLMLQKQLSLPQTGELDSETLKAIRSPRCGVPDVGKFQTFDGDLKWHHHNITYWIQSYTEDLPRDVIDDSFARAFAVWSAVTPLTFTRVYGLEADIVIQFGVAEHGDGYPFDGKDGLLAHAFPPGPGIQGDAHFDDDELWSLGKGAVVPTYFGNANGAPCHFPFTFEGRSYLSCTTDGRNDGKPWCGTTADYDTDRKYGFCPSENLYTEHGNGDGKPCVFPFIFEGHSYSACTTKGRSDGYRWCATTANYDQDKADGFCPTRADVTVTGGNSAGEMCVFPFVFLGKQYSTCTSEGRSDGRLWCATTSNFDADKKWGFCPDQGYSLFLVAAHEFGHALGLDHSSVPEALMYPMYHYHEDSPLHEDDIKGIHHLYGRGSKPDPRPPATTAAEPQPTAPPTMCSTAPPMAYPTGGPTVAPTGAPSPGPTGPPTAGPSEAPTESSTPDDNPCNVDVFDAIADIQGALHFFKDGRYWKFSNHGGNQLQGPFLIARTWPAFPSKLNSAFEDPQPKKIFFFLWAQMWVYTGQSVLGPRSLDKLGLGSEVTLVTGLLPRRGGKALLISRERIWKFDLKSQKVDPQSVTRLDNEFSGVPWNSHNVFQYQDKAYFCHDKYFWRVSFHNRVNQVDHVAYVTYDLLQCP
Protocol: Hind-limbs were skinned, severed just above the tibia-tarsus joint and below the metatarsals, and the tibia-tarsus joints (ankles) were weighed, snap frozen and pulverized on dry ice using a hammer and anvil. The pulverized tissue was suspended in 3 volumes (w:v) of ice-cold homogenization buffer containing 50 mM Tris pH 7.5, 150 mM NaCl, 5 mM EDTA, 1% Triton X100, 0.05% Brij 30, 10% dimethylsulfoxide and Complete EDTA-free Protease Inhibitor Cocktail (Roche Diagnostics). The suspended tissue was homogenized sequentially with a Kinematica AG Polytron and a Dounce homogenizer. Homogenates were centrifuged at 16,000×g for 10 min at 4° C. and the soluble fractions were saved. Dimethylsulfoxide was removed from a portion of each soluble fraction using PD MiniTrap™ G-25 desalting columns (GE Healthcare). Homogenates (0.25 mL), free of DMSO, were diluted with an equal volume of binding buffer (i.e., homogenization buffer without dimethylsufoxide) and adjusted to contain 50 μL of a 50% slurry of gelatin-conjugated sepharose. […]
To induce arthritis, Female Lewis (LEW/N) rats, 5-6 weeks of age (80-100 g) were injected (i.p.) with SCW PG-PS as described above. […] Each ankle was measured 3 times and averaged, and treatment groups were randomized based on ankle thickness (Table 6). […]

T1 sequence (P14780 20-707): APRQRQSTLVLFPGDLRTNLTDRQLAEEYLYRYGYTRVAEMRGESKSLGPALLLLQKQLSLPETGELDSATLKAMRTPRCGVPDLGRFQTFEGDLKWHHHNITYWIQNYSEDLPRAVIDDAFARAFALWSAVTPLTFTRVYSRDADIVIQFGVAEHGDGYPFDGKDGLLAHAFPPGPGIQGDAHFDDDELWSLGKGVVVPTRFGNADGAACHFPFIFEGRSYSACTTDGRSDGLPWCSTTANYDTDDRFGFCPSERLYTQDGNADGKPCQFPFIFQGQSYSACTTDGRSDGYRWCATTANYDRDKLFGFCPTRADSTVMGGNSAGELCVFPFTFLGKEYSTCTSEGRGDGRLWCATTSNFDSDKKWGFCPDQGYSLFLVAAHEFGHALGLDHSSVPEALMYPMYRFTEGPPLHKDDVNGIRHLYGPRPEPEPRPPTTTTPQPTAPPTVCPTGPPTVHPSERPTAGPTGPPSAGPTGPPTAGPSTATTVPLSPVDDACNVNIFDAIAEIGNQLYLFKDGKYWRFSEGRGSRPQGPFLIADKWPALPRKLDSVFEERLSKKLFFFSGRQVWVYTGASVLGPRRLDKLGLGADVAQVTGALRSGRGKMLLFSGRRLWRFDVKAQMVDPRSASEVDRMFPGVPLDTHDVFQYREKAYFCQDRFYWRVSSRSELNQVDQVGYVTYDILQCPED

Percent of total signal, 80 kD [1]: 7% | Percent of total signal, 86 kD [1]: 47% | Percent of total signal, 100 kD [1]: 46% | Signal, Total [1]: 91346 INT*mm^2 | abundance of proMMP9 in ankles [2]: did not reduce the abundance of proMMP9 | abundance of proMMP9 in ankles ([2]; listed as Compound α): did not reduce the abundance of proMMP-9
Structure (SMILES): Cc1nc(C)c(-c2csc(Nc3cc(S(N)(=O)=O)ccc3OC(C)C)n2)s1 [Compound-α, 3-(2′,4′-Dimethyl-[4,5′]bithiazolyl-2-ylamino)-4-isopropoxy-benzenesulfonamide.HBr]
